According to US11179397B2, “Imidazopyrimidine derivatives” (Gilead Sciences, Inc., priority 2018, dated 2021):

Assays:
[1] = biological target: SHP-2 full length protein (Homo sapiens (Human), UniProt Q06124); assay: SHP-2 biochemical DiFMUP pseudosubstrate-fluorogenic assay; conditions: 0.2 nM SHP-2, 1 μM IRS-1 activator peptide, 50 μM DiFMUP; read-out: SHP2 IC50
Method in brief: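 In-house recombinant full-length SHP-2 preincubated 90 min at room temperature with compounds (1:3 series, 10,000–0.005 nM), then DiFMUP substrate added at 50 μM final for 30 min more. Fluorescence normalised to DMSO wells (100%) and IC50 derived by curve fitting.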

NCI-H358 cells = assay: NCI-H358 3D tumor spheroid growth inhibition; type: cell-based; conditions: Homo sapiens, NCI-H358, 168 h, 3D spheroids, 7 days, 3D CellTiter Glo; cellular IC50 designated EC50; read-out: H358 EC50
Method in brief: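 Cells seeded at 1000/well in ultra-low-attachment plates at 37 °C, 5% CO2 to form spheroids, then incubated a further 7 days with compounds. Viability by 3D CellTiter Glo luminescence; % inhibition versus DMSO wells, with normalized cellular IC50 reported as EC50.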

IC50 [1] | EC50 (NCI-H358 cells) | Structure (SMILES)
250 nM | 350 nM | N[C@H]1c2ccccc2CC12CCN(c1ncc(Sc3cccc(Cl)c3Cl)c3nccn13)CC2 [Example 86, (R)-1′-(8-((2,3-dichlorophenyl)thio)imidazo[1,2-c]pyrimidin-5-yl)-1,3-dihydrospiro[indene-2,4′-piperidin]-1-amine]
7.2 nM | 82 nM | Cc1c(Sc2cnc(N3CCC4(CCC[C@H]4N)CC3)n3ccnc23)ccnc1Cl [Example 81, (R)-8-(8-((2-chloro-3-methylpyridin-4-yl)thio)imidazo[1,2-c]pyrimidin-5-yl)-8-azaspiro[4.5]decan-1-amine]
4.1 nM | 97 nM | C[C@@H]1OCC2(CCN(c3ncc(Sc4cccc5c(C=O)csc45)c4nccn34)CC2)[C@@H]1N [Example 96, 7-((5-((3S,4S)-4-amino-3-methyl-2-oxa-8-azaspiro[4.5]decan-8-yl)imidazo[1,2-c]pyrimidin-8-yl)thio)benzo[b]thiophene-3-carbaldehyde]
9.1 nM | 70 nM | C[C@@H]1OCC2(CCN(c3ncc(Sc4ccnc5c(F)cccc45)c4nccn34)CC2)[C@@H]1N [Example 122, (3S,4S)-8-(8-((8-fluoroquinolin-4-yl)thio)imidazo[1,2-c]pyrimidin-5-yl)-3-methyl-2-oxa-8-azaspiro[4.5]decan-4-amine]
37 nM | 410 nM | N[C@@H]1CCCC12CCN(c1ncc(Sc3ccnc4ncccc34)c3nccn13)CC2 [Example 90, (R)-8-(8-((1,8-naphthyridin-4-yl)thio)imidazo[1,2-c]pyrimidin-5-yl)-8-azaspiro[4.5]decan-1-amine]
28 nM | 270 nM | Cc1nccc(Sc2cnc(N3CCC4(CCC[C@H]4N)CC3)n3ccnc23)c1C [Example 80, (R)-8-(8-((2,3-dimethylpyridin-4-yl)thio)imidazo[1,2-c]pyrimidin-5-yl)-8-azaspiro[4.5]decan-1-amine]
11 nM | 110 nM | C[C@@H]1OCC2(CCN(c3ncc(Sc4ccnc5c4CCC5)c4nccn34)CC2)[C@@H]1N [Example 97, (3S,4S)-8-(8-((6,7-dihydro-5H-cyclopenta[b]pyridin-4-yl)thio)imidazo[1,2-c]pyrimidin-5-yl)-3-methyl-2-oxa-8-azaspiro[4.5]decan-4-amine]
41 nM | 132 nM | N[C@H]1c2cccnc2CC12CCN(c1ncc(Sc3cccc(Cl)c3Cl)c3nccn13)CC2 [Example 148, (R)-1′-(8-((2,3-dichlorophenyl)thio)imidazo[1,2-c]pyrimidin-5-yl)-5,7-dihydrospiro[cyclopenta[b]pyridine-6,4′-piperidin]-5-amine]
2.8 nM | 59 nM | Cc1nc(N2CCC3(CC2)CO[C@@H](C)[C@H]3N)n2ccnc2c1-c1cccc(Cl)c1Cl [Example 1, (3S,4S)-8-(8-(2,3-dichlorophenyl)-7-methylimidazo[1,2-c]pyrimidin-5-yl)-3-methyl-2-oxa-8-azaspiro[4.5]decan-4-amine]
480 nM | > 12500 nM | C[C@@H]1OCC2(CCN(c3ncc(Sc4cncc5ccccc45)c4nccn34)CC2)[C@@H]1N [Example 93, (3S,4S)-3-methyl-8-(8-(isoquinolin-4-ylthio)imidazo[1,2-c]pyrimidin-5-yl)-2-oxa-8-azaspiro[4.5]decan-4-amine]
2.8 nM | 130 nM | N[C@@H]1CCCC12CCN(c1ncc(Sc3cccc(Cl)c3Cl)c3nccn13)CC2 [Example 44, (R)-8-(8-((2,3-dichlorophenyl)thio)imidazo[1,2-c]pyrimidin-5-yl)-8-azaspiro[4.5]decan-1-amine]
7.6 nM | 150 nM | Cc1nccc(Sc2cnc(N3CCC4(CCC[C@H]4N)CC3)n3ccnc23)c1Cl [Example 47, (R)-8-(8-((3-chloro-2-methylpyridin-4-yl)thio)imidazo[1,2-c]pyrimidin-5-yl)-8-azaspiro[4.5]decan-1-amine]
6.8 nM | 95 nM | COc1ccc2c(Sc3cnc(N4CCC5(CC4)CO[C@@H](C)[C@H]5N)n4ccnc34)ccnc2c1 [Example 123, (3S,4S)-8-(8-((7-methoxyquinolin-4-yl)thio)imidazo[1,2-c]pyrimidin-5-yl)-3-methyl-2-oxa-8-azaspiro[4.5]decan-4-amine]
> 10000 nM | > 12500 nM | N[C@@H]1CCCC12CCN(c1ncc(Sc3cc(=O)[nH]c4ccccc34)c3nccn13)CC2 [Example 89, (R)-4-((5-(1-amino-8-azaspiro[4.5]decan-8-yl)imidazo[1,2-c]pyrimidin-8-yl)thio)quinolin-2(1H)-one]
30 nM | 270 nM | C[C@@H]1OCC2(CCN(c3ncc(Sc4ccnc5ccc(C#N)cc45)c4nccn34)CC2)[C@@H]1N [Example 127, 4-((5-((3S,4S)-4-amino-3-methyl-2-oxa-8-azaspiro[4.5]decan-8-yl)imidazo[1,2-c]pyrimidin-8-yl)thio)quinoline-6-carbonitrile]
5.2 nM | 95 nM | C[C@@H]1OCC2(CCN(c3ncc(Sc4cccc5ncsc45)c4nccn34)CC2)[C@@H]1N [Example 95, (3S,4S)-8-(8-(benzo[d]thiazol-7-ylthio)imidazo[1,2-c]pyrimidin-5-yl)-3-methyl-2-oxa-8-azaspiro[4.5]decan-4-amine]

Continued, compound first:

Structure (SMILES) | IC50 [1] | EC50 (NCI-H358 cells)
Cc1nc(N2CCC3(CC2)Cc2ccccc2[C@H]3N)n2ccnc2c1-c1cccc(Cl)c1Cl [Example 135, (S)-1′-(8-(2,3-dichlorophenyl)-7-methylimidazo[1,2-c]pyrimidin-5-yl)-1,3-dihydrospiro[indene-2,4′-piperidin]-1-amine] | 5.4 nM | 14 nM
Cc1nc(N2CCC3(CCC[C@H]3N)CC2)n2ccnc2c1-c1ccnc(F)c1Cl [Example 28, (R)-8-(8-(3-chloro-2-fluoropyridin-4-yl)-7-methylimidazo[1,2-c]pyrimidin-5-yl)-8-azaspiro[4.5]decan-1-amine] | 74 nM | 380 nM
Cc1nc(N2CCC3(CC2)C[C@@H](O)C[C@H]3N)n2ccnc2c1-c1cccc(Cl)c1Cl [Example 33, (2R,4R)-4-amino-8-(8-(2,3-dichlorophenyl)-7-methylimidazo[1,2-c]pyrimidin-5-yl)-8-azaspiro[4.5]decan-2-ol] | 3.1 nM | 32 nM
Cc1nc(N2CCC3(CCC[C@H]3N)CC2)n2ccnc2c1-c1ccc2c(c1)OC(F)(F)O2 [Example 74, (R)-8-(8-(2,2-difluorobenzo[d][1,3]dioxol-5-yl)-7-methylimidazo[1,2-c]pyrimidin-5-yl)-8-azaspiro[4.5]decan-1-amine] | 860 nM | > 12500 nM
C[C@@H](N)C1CCN(c2ncc(Sc3cccc(Cl)c3Cl)c3nccn23)CC1 [Example 94, (R)-1-(1-(8-((2,3-dichlorophenyl)thio)imidazo[1,2-c]pyrimidin-5-yl)piperidin-4-yl)ethan-1-amine] | 170 nM | 1000 nM
N[C@@H]1c2ccccc2CC12CCN(c1ncc(Sc3cccc4cnsc34)c3nccn13)CC2 [Example 140, (S)-1′-(8-(benzo[d]isothiazol-7-ylthio)imidazo[1,2-c]pyrimidin-5-yl)-1,3-dihydrospiro[indene-2,4′-piperidin]-1-amine] | 2.6 nM | 18 nM
NC1CC2(CCN(c3ncc(Sc4cccc(Cl)c4Cl)c4nccn34)C2)C1 (stereo not drawn) [Example 58, 6-(8-((2,3-dichlorophenyl)thio)imidazo[1,2-c]pyrimidin-5-yl)-6-azaspiro[3.4]octan-2-amine] | 340 nM | 4400 nM
NCC1CC2CN(c3ncc(Sc4cccc(Cl)c4Cl)c4nccn34)CC2C1 (stereo not drawn) [Example 41, (2-(8-((2,3-dichlorophenyl)thio)imidazo[1,2-c]pyrimidin-5-yl)octahydrocyclopenta[c]pyrrol-5-yl)methanamine] | 150 nM | 3200 nM
C[C@@H]1OCC2(CCN(c3ncc(Oc4cccc(Cl)c4Cl)c4nccn34)CC2)[C@@H]1N [Example 71, (3S,4S)-8-(8-(2,3-dichlorophenoxy)imidazo[1,2-c]pyrimidin-5-yl)-3-methyl-2-oxa-8-azaspiro[4.5]decan-4-amine] | 120 nM | 1400 nM
Cc1nc(N2CCC3(CCC[C@H]3N)CC2)n2ccnc2c1-c1ccc(Cl)cc1Cl [Example 26, (R)-8-(8-(2,4-dichlorophenyl)-7-methylimidazo[1,2-c]pyrimidin-5-yl)-8-azaspiro[4.5]decan-1-amine] | 25 nM | 360 nM
Cc1nc(N2CCC3(CCC[C@H]3N)CC2)n2cnnc2c1-c1cnc(N)c(Cl)c1Cl [Example 66, (R)-8-(8-(6-amino-4,5-dichloropyridin-3-yl)-7-methyl-[1,2,4]triazolo[4,3-c]pyrimidin-5-yl)-8-azaspiro[4.5]decan-1-amine] | 140 nM | 2900 nM
NCC1CCN(c2ncc(Sc3cccc(Cl)c3Cl)c3nccn23)CC1 [Example 119, (1-(8-((2,3-dichlorophenyl)thio)imidazo[1,2-c]pyrimidin-5-yl)piperidin-4-yl)methanamine] | 73 nM | 2200 nM
Clc1cccc(Sc2cnc(N3CCC4(CCCCN4)CC3)n3ccnc23)c1Cl [Example 57, 9-(8-((2,3-dichlorophenyl)thio)imidazo[1,2-c]pyrimidin-5-yl)-1,9-diazaspiro[5.5]undecane] | 500 nM | > 12500 nM
N[C@@H]1c2ccccc2CC12CCN(c1ncc(Sc3ccnc4ccsc34)c3nccn13)CC2 [Example 139, (S)-1′-(8-(thieno[3,2-b]pyridin-7-ylthio)imidazo[1,2-c]pyrimidin-5-yl)-1,3-dihydrospiro[indene-2,4′-piperidin]-1-amine] | 1.7 nM | 8.9 nM
